Reference: ChEMBL document CHEMBL1201862, “PubChem BioAssay data set” (2004)
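Assay format: 96-well plates, 48-hour exposure. GI50 = concentration required for 50% inhibition of growth.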 The source made the active and inactive calls. Rule as the data show it: active = GI50 up to about 1.1 µM and inactive = higher.

Key:
Assay in all cases: growth of human tumour cells (NCI), 48 h
[1] = system: KM12
[2] = system: MCF7
[3] = system: UO-31
[4] = system: NCI-H522
[5] = system: IGROV-1
[6] = system: SF-295
[7] = system: PC-3
[8] = system: HOP-92
[9] = system: T47D
[10] = system: ACHN
[11] = system: SK-MEL-2
[12] = system: Malme-3M
[13] = system: UACC-257
[14] = system: CCRF-CEM
[15] = system: LOX IMVI
[16] = system: SN12C
[17] = system: OVCAR-4
[18] = system: OVCAR-3
[19] = system: U-251
[20] = system: EKVX

Structure (SMILES) | GI50 [1] | GI50 [2] | GI50 [3] | GI50 [4] | GI50 [5] | GI50 [6] | GI50 [7] | GI50 [8] | GI50 [9] | GI50 [10] | GI50 [11] | GI50 [12] | GI50 [13] | GI50 [14] | GI50 [15] | GI50 [16] | GI50 [17] | GI50 [18] | GI50 [19] | GI50 [20]
COC1C=COC2(C)Oc3c(C)c(O)c4c(O)c(c(C5SCCS5)c(O)c4c3C2=O)NC(=O)/C(C)=C\C=CC(C)C(O)C(C)C(O)C(C)C(OC(C)=O)C1C (centres undefined) | 5.35 µM (inactive) | 4.24 µM (inactive) | 12.1 µM (inactive) | 4.75 µM (inactive) | 7.33 µM (inactive) | 4.74 µM (inactive) | 4.98 µM (inactive) | 10.1 µM (inactive) | 3.1 µM (inactive) | 3.01 µM (inactive) | 6.43 µM (inactive) | 8.11 µM (inactive) | 4.7 µM (inactive) | 2.26 µM (inactive) | 2.18 µM (inactive) | 2.55 µM (inactive) | 7.33 µM (inactive) | 4.99 µM (inactive) | 3.95 µM (inactive) | 
O=C1/C(=C/c2ccc(Cl)cc2)CSC/C1=C\c1ccc(Cl)cc1 | 1.96 µM (inactive) | 2.72 µM (inactive) | 1.92 µM (inactive) | 4.99 µM (inactive) | 1.82 µM (inactive) | 1.71 µM (inactive) | 3.52 µM (inactive) | 21.2 µM (inactive) | 6.89 µM (inactive) | 3.8 µM (inactive) | 14.5 µM (inactive) | 10.3 µM (inactive) | 1.99 µM (inactive) | 2.68 µM (inactive) | 1.91 µM (inactive) | 3.39 µM (inactive) | 3.71 µM (inactive) | 2.93 µM (inactive) | 1.67 µM (inactive) | 22.9 µM (inactive)
COc1ccc(C(=O)/C=C/c2ccc(OCC(=O)O)cc2)cc1 | 51.5 µM (inactive) | 42.8 µM (inactive) | > 100 µM (inactive) | 36 µM (inactive) | > 100 µM (inactive) | > 100 µM (inactive) | > 100 µM (inactive) | 31.5 µM (inactive) | 38.4 µM (inactive) | > 100 µM (inactive) | 44.5 µM (inactive) | 50.7 µM (inactive) |  | 31.7 µM (inactive) | 33.6 µM (inactive) | 71.3 µM (inactive) |  | 60.4 µM (inactive) | 27.7 µM (inactive) | > 100 µM (inactive)
O=c1cc(NNc2ccccc2)[nH]c(=S)[nH]1 | 27.5 µM (inactive) | 25.9 µM (inactive) | > 100 µM (inactive) | 17.5 µM (inactive) | 79.4 µM (inactive) | > 100 µM (inactive) | > 100 µM (inactive) | 32.6 µM (inactive) | 27.1 µM (inactive) | 43.7 µM (inactive) | 16.6 µM (inactive) | 37.7 µM (inactive) | 47.6 µM (inactive) | 29.8 µM (inactive) | 16.8 µM (inactive) | > 100 µM (inactive) | 71 µM (inactive) | 16.7 µM (inactive) | 45 µM (inactive) | 98.9 µM (inactive)
CC(C)N1CCN(c2ccc(OCC3COC(Cn4cncn4)(c4ccc(Cl)cc4Cl)O3)cc2)CC1 (centres undefined) [TERCONAZOLE] | 13.2 µM (inactive) | 13.2 µM (inactive) | > 21.9 µM (inactive) | 15.2 µM (inactive) | 16 µM (inactive) | 12.8 µM (inactive) | 14.6 µM (inactive) | 13.6 µM (inactive) | 18 µM (inactive) | 20.6 µM (inactive) | 14.7 µM (inactive) | 7.85 µM (inactive) | 1.89 µM (inactive) | 11.5 µM (inactive) | 12 µM (inactive) | 15.8 µM (inactive) | 17.2 µM (inactive) | 13.5 µM (inactive) | 12.9 µM (inactive) | 15.1 µM (inactive)
CC(C)(C)N/N=C(\C(=O)NC1=C(Cl)C(=O)c2ccccc2C1=O)C1C=CCS1(=O)=O (centres undefined) | 16 µM (inactive) | 13.1 µM (inactive) | 16.8 µM (inactive) | 12.5 µM (inactive) | 10 µM (inactive) | 12.6 µM (inactive) | 18.1 µM (inactive) | 14.1 µM (inactive) | 19.5 µM (inactive) | 16.1 µM (inactive) | 11.2 µM (inactive) | 2.27 µM (inactive) | 13.6 µM (inactive) | > 100 µM (inactive) | 7.98 µM (inactive) | 15.1 µM (inactive) | 16.4 µM (inactive) | 2.65 µM (inactive) | > 100 µM (inactive) | 16.5 µM (inactive)
COc1ccc(-c2oc3c(OC)c(OC)cc(O)c3c(=O)c2OC)cc1 | > 100 µM (inactive) | > 100 µM (inactive) | > 100 µM (inactive) | 54.8 µM (inactive) | > 100 µM (inactive) | > 100 µM (inactive) | > 10 µM (inactive) | 42.8 µM (inactive) | > 100 µM (inactive) | > 100 µM (inactive) | > 100 µM (inactive) | > 100 µM (inactive) | > 100 µM (inactive) | > 100 µM (inactive) | 65 µM (inactive) | > 100 µM (inactive) | > 100 µM (inactive) | > 100 µM (inactive) | 70.8 µM (inactive) | > 100 µM (inactive)
C/C(=N/NC(=S)N1CC2CCC(CC2)C1)c1cnccn1 |  | < 0.01 µM (active) | < 0.0168 µM (active) | 0.117 µM (active) | < 0.01 µM (active) | 0.0551 µM (active) | < 0.01 µM (active) | 0.619 µM (active) | < 0.0461 µM (active) | < 0.012 µM (active) | 0.278 µM (active) | < 0.01 µM (active) | < 0.01 µM (active) | < 0.01 µM (active) | < 0.01 µM (active) | < 0.0178 µM (active) | 0.0264 µM (active) | < 0.01 µM (active) | < 0.01 µM (active) | 0.0101 µM (active)
COc1cc(C(c2c(O)c3ccccc3oc2=O)c2c(O)c3ccccc3oc2=O)cc(Br)c1O | 17.5 µM (inactive) | 16.2 µM (inactive) | 16.4 µM (inactive) | 12.9 µM (inactive) | 15.6 µM (inactive) | 21.1 µM (inactive) | 19.1 µM (inactive) | 12.5 µM (inactive) | 22.8 µM (inactive) | 17.4 µM (inactive) | 23.8 µM (inactive) | 16.8 µM (inactive) | 17.3 µM (inactive) |  | 16 µM (inactive) | 15.8 µM (inactive) | 15.4 µM (inactive) | 15.9 µM (inactive) | 16.8 µM (inactive) | 18.8 µM (inactive)
O=c1[nH]nc(-c2ccccc2)n1/N=C/c1ccccc1O | 47 µM (inactive) | > 100 µM (inactive) | > 100 µM (inactive) | 42.7 µM (inactive) | 53 µM (inactive) | 71 µM (inactive) | 89.9 µM (inactive) | 67.3 µM (inactive) | > 100 µM (inactive) | 63.2 µM (inactive) | > 100 µM (inactive) | 88.1 µM (inactive) | > 100 µM (inactive) |  | > 100 µM (inactive) | > 100 µM (inactive) | 28.6 µM (inactive) | 59.4 µM (inactive) | 41.6 µM (inactive) | 67.9 µM (inactive)
